Source: US9034308B2, “Anti-sensitivity, anti-caries, anti-staining, anti-plaque ultra-mild oral hygiene agent” (RHODIA OPERATIONS, priority 2003, dated 2015)

How the values were obtained:
[1] = 14C labeling, in the presence of saliva; cited from earlier work
[2] = Interaction with calcium phosphates (foaming); format: physicochemical; conditions: 1 Kg powder added to 1800 ml of 10% solution, pH ~7
Procedure: Disappearance of foaming was indicative of loss of surfactant from bulk solution. Increased hydrophobicity of the calcium phosphate was indicative of surfactant adsorption onto the solid particles.
A typical calcium based abrasive tooth paste formulation was prepared using dibasic calcium phosphate, dihydrate as the abrasive and conventional mixing techniques as shown below. […] This finding was in contrast to an earlier patent discussed above (U.S. Pat. No. 4,152,421) and was presumably so because of the strong interaction of the potassium dodecyl phosphate (1.2%) with the calcium phosphate abrasive.

[3] = 1% solution, in vitro; cited from earlier work

Molecule	amount bonded to 40 mg HA [1] [mg]	also measured
dodecyl-3 EO monoalkyl phosphate	0.20 to 0.35	–
CCCCCCCCCCCCOP(=O)([O-])[O-].[K+].[K+] [potassium dodecyl phosphate]	–	foaming of the solution after addition of dibasic calcium phosphate, dihydrate [2]: significantly reduced
hexadecyl-8 EO ethoxylate	< 0.05	–
dioctyl phosphate	–	rate of calcium demineralization on treated teeth [3]: lower rate of calcium demineralization
